In US9610359B2, “Methods and compositions related to annexin 1-binding compounds” (Burnham Institute for Medical Research, priority 2009, dated 2017):
“Also recorded” adds a separate entry of the source. Residues, ends and D or L forms follow the SMILES beside them. No end group written: not given here.

Columns and labels:
[1] = tested on: Lewis lung carcinoma (LLC) tumors; experiment: in vivo imaging of tumor targeting in dorsal skinfold chamber; set-up: species or system mouse; conditions: for vascular staining in tumor tissue sections: 20 min after injection
Description: (A) Lewis lung carcinoma (LLC) tumors were allowed to vascularize for 3 days in dorsal skinfold chamber window in nude mice. Mice were injected with 100 μl of 50 μM IF7-A488 (row a) or RQ7-A488 (row b) in 5% glucose in water. IF7-A488 was also injected to tumor-bearing mice pre-injected with rabbit IgG (row c) or with rabbit anti-Anxa1 antibody (row d). Fluorescence signals were monitored under a fluorescence microscope up to 40 min post-injection. From left: bright field before injection, and fluorescence at 0, 5, 20 min after injection. Far right, the boundary of tumor and stroma at 20 min (Scale bar=500 μm). (B) Quantitative analysis of fluorescence during the course of the analysis shown in A. The line with the highest signal at 10 minutes represents IF&-A488. The line with the second highest signal at 10 minutes represents the control IgG. The line with the third highest signal at 10 minutes represents Anxa-1 antibody. The line with the lowest signal at 10 minutes represents RQ7-A488. Intensity of fluorescence was determined by Image J program. Error bars represent SD (n=3). Asterisks show statistical significance or p<0.0001, t test. (C) Fluorescence micrographs of tumor sections 20 min after injection with IF7-A488 and RQ7-A488. From left: IF7-A488, DAPI, merged, and bright field. […] Experiments were repeated 3 times, and representative results are shown. Arrows indicate fluorescence. (D) Fluorescence remained in circulation in mice with or without subcutaneous B16 tumors. IF7-A488 was injected intravenously through the tail vein, and fluorescence remaining in circulation was measured. Upper line represents “without tumor”, middle line represents “with 3 days tumor”, and bottom line represents “with 6 days tumor.” Error bars represent SD (n=3).
A Lewis lung carcinoma (LLC) tumor was produced in a donor nude mouse by subcutaneous injection, and small piece of tumor (less than 1 mm^3) was transplanted to a dorsal skinfold chamber in a recipient nude mouse (8-10 weeks female Balb/c nude) as described (Lehr et al., Am J Pathol 1993; 143:1055-62; Oh et al., Nat Biotechnol 2007; 25:327-37). Three days later, the mouse was anesthetized by peritoneal injection of 1.25% 2,2,2-Tribromoethanol ([…]). IF7-A488 or RQ7-A488 (100 μl; […] in 5% glucose solution) was injected through the tail vein. Intravital Alexa 488 signals in the tumor were detected and recorded by a Zeiss Axioplan fluorescence microscope and a digital camera system (DP70 and DP controller, Olympus). For inhibition assays, rabbit anti-Anxa1 antibody (H-65, Santa Cruz) or rabbit IgG (20 μg IgG) was injected 15 minutes prior to IF7-A488 injection. Signal intensity in the tumor from 0 min to 40 min was measured by Image J (NIH, Maryland). After 10 min, irradiation of specimens by a UV lamp was limited only to times when photos were taken to avoid fluorescence bleaching. The tumor was isolated from the dorsal skin folder chamber, fixed with 4% paraformaldehyde at room temperature for 15 min, immersed in O.C.T compound, and cryosections were made. Frozen sections were overlaid with Vectashield containing DAPI (Vector laboratories) and examined under a Zeiss Axioplan fluorescence microscope.

Anxa1-His6 protein [2] = target: T1, Anxa1-His6 protein (Homo sapiens, UniProt P04083); experiment: in vitro plate assay for binding to recombinant Anxa1-His6 protein; conditions: 4 μg/ml, Tris-HCl pH7.4, 1 mM CaCl2, 0.05% Tween 20
T1 construct: Full-length cDNA encoding Anxa1 was obtained from Invitrogen (Carlsbad, Calif.) and subcloned into pET29a vector; His6 (C); made in house; host or cells: bacteria (pET29a vector, Novagen)
T1 sequence (P04083 1-346): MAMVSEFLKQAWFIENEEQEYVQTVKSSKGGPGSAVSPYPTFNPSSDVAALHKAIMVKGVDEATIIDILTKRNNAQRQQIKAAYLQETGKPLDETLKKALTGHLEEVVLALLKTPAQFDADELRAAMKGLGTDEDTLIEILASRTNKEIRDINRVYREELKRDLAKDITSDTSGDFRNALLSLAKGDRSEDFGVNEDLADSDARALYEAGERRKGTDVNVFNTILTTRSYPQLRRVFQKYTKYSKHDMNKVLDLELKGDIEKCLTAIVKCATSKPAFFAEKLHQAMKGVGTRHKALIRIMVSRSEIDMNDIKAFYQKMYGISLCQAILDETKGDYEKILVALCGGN
Text: (§1) FIGS. 1A-1H show the essential role of annexin 1 (Anxa1) in tumor growth and identification of a peptide sequence with tumor vasculature targeting activity in vivo. A and B. Growth of B16 tumors subcutaneously injected into Anxa1(+/−) and Anxa1(−/−) mutant mice. C. Histology of B16 tumors produced in Anxa1(+/−) and Anxa1(−/−) mice. Each scale bar represents 2.00 mm. D. Immunohistochemistry of B16 tumors for CD31 showing endothelial cells and vasculature. Each scale bar represents 200 μm. E. In vivo phage targeting in B16 tumor-bearing mice. Numbers of transformed colonies recovered from the tumor or lung were determined. […] F. In vivo tumor and organ targeting activity of IFLLWQR (SEQ ID NO:2) displaying phage. Phage was injected into B16 tumor bearing mice pre-injected with anti-Anxa1 antibody or with control rabbit IgG. G. In vitro plate assay for binding of IF7-A488 (upper line) and control RQ7-A488C (lower line) to recombinant […] protein produced by bacteria. H. Effect of IF7 (upper line) and control RQ7 (lower line) on binding of FITC-labeled polyacrylamide-LeA oligosaccharide to Anxa1-His6 protein.
(§2) Full-length cDNA encoding Anxa1 was obtained from Invitrogen (Carlsbad, Calif.) and subcloned into pET29a vector (Novagen) to produce an […] fusion protein. […] After washing the plate, fluorescence was measured by a Molecular Devices Analyst HT plate reader. […]

Anxa1-His6 protein [3] = target: T1, Anxa1-His6 protein; experiment: inhibition of binding of FITC-labeled polyacrylamide-LeA oligosaccharide to Anxa1-His6
Text: as §1, §2

Anxa1-His protein = target: T2, Anxa1-His protein (Homo sapiens, UniProt P04083); experiment: isothermal titration calorimetry (ITC) with Anxa1-His protein; format: binding; conditions: 23° C., 20 mM Tris pH 7.9, 250 mM NaCl, 1 mM CaCl2, 10% dimethylsulfoxide; average n=4, two Anxa1-His preparations
T2 construct: Full-length cDNA encoding Anxa1 was obtained from Invitrogen (Carlsbad, Calif.) and subcloned into pET29a vector; His6 (C); made in house; host or cells: bacteria (pET29a vector, Novagen)
T2 sequence (P04083 1-346): T1 sequence (P04083 1-346)
Description: ITC was performed on a VP-ITC calorimeter from Microcal (Northampton, Mass.). In this analysis IF7K3C peptide or […] (SEQ ID NO:12), in which IF7 was modified by inserted with three lysine residues between IF7 and C to increase solubility in water. Eight μl aliquots of solution containing 1.0 or 1.5 mM were injected into the cell containing 100 or 150 μM Anxa1-His protein. In each experiment 37 injections were made. The experiments were performed at 23° C. in buffer containing 20 mM Tris pH 7.9, 250 mM NaCl, 1 mM CaCl2 and 10% dimethylsulfoxide. Experimental data were analyzed using Microcal Origin software provided by the ITC manufacturer (Microcal, Northampton, Mass.).

[4] = body weights, blood cell counts and blood chemistry of treated nude mice; format: in vivo, mouse; conditions: daily injection for 10 days, versus no drug injection
Text: FIGS. 15A, 15B and 15C show body weights (A), blood cell counts (B), and blood chemistry (C) of the nude mice treated with IF7C(RR)-SN38 and RQ7C(RR)-SN38 daily injection for 10 days.

[5] = fluorescence remaining in circulation after intravenous injection; format: in vivo, mouse
Description: (A) Lewis lung carcinoma (LLC) tumors were allowed to vascularize for 3 days in dorsal skinfold chamber window in nude mice. Mice were injected with 100 μl of 50 μM IF7-A488 (row a) or RQ7-A488 (row b) in 5% glucose in water. IF7-A488 was also injected to tumor-bearing mice pre-injected with rabbit IgG (row c) or with rabbit anti-Anxa1 antibody (row d). Fluorescence signals were monitored under a fluorescence microscope up to 40 min post-injection. From left: bright field before injection, and fluorescence at 0, 5, 20 min after injection. Far right, the boundary of tumor and stroma at 20 min (Scale bar=500 μm). (B) Quantitative analysis of fluorescence during the course of the analysis shown in A. The line with the highest signal at 10 minutes represents IF&-A488. The line with the second highest signal at 10 minutes represents the control IgG. The line with the third highest signal at 10 minutes represents Anxa-1 antibody. The line with the lowest signal at 10 minutes represents RQ7-A488. Intensity of fluorescence was determined by Image J program. […] (C) Fluorescence micrographs of tumor sections 20 min after injection with IF7-A488 and RQ7-A488. […] Arrows indicate fluorescence. (D) Fluorescence remained in circulation in mice with or without subcutaneous B16 tumors. IF7-A488 was injected intravenously through the tail vein, and fluorescence remaining in circulation was measured. […]

[6] = tested on: Human prostate cancer PC3 tumors; experiment: orthotopic PC3 prostate cancer model in SCID mice; format: in vivo; conditions: 0.13 μmoles iv
Description: (§3) FIGS. 6A and 6B show the effect of IF7-GA on melanoma, lung carcinoma, prostate cancer, and breast cancer mouse models. A, Effect of IF7-GA on tumor size. […] Mice were euthanised on day 15 to measure tumor weight. […] Mice were euthanised on day 13 and tumors weighed. (c) Human prostate cancer PC3 tumors were grown orthotopically in the prostate of SCID mice. On day 7, each mouse was injected intravenously with the compounds as in A-a, and injections administered every 4 days, for a total of four injections, until day 22. Mice were euthanised on day 28 and tumors weighed. (d) Human breast cancer MDA-MB-231 tumors were grown orthotopically in fat pads of SCID mice. On day 7, each mouse was injected intravenously with the compounds as in A-a, and injections performed every 4 days, for a total of four injections, until day 22. […] B, Histochemistry of tumors from the mice intravenously injected with the compounds described in A. Apoptotic tumor cells along blood vessels in transplanted tumors are detected by TUNEL assay. […]
(§4) Mouse melanoma B16F1 cells (2×10^5 cells/100 μl serum-free DMEM) were injected subcutaneously into the dorsal flank of C57BL/6 female mice (8-10 weeks old). […] On day 15, mice were sacrificed and tumor weights determined. […] On day 13, mice were sacrificed and tumor weights determined. […] On day 28, mice were sacrificed and prostate tumor weights determined. […]

[7] = tested on: Mouse melanoma B16F1 tumors; format: in vivo; conditions: B16 melanoma, 0.13 μmoles iv
Description: (a) Mouse melanoma B16F1 tumors were grown subcutaneously in C57BL6 mice. On day 10, each mouse was injected intravenously with either 100 μl of 5% glucose or that containing 0.13 μmoles of each IF7, GA, or IF7-GA. Injections were administered every other day, for a total of three injections, until day 14. […] B, Histochemistry of tumors from the mice intravenously injected with the compounds described in A. Apoptotic tumor cells along blood vessels in transplanted tumors are detected by TUNEL assay. B16 melanoma (a), LLC lung carcinoma (b), PC3 prostate tumor (c) and MDA-MB-231 breast tumor (d) from mice treated with each compound.
Injections were administered every other day, for a total of 7 injections, until day 26, as shown by arrows.

[8] = tested on: Mouse Lewis lung carcinoma (LLC) tumors; experiment: subcutaneous Lewis lung carcinoma tumor model; format: in vivo; conditions: 0.13 μmoles iv
Description: as §3, §4

[9] = tested on: Human breast cancer MDA-MB-231 tumors; experiment: orthotopic MDA-MB-231 breast cancer model in SCID mice; format: in vivo; conditions: MDA-MB-231 breast tumor, 0.13 μmoles iv
Description: as §3, §4

[10] = 100 μl of 50 μM, tail vein, nude mice

## RQ7-A488 (RQWLLFI; also: Alexa 488 conjugate, site not given here) [reference compound]
[1]; [10]
  tumor fluorescence signals: either not detectable or remained at background levels
[1]
  vascular staining in tumor tissue sections: not RQ7-A488; also recorded: no RQ7-A488 signal was detected
Anxa1-His6 protein [2]
  binding to recombinant Anxa1-His6 protein in plate assay: did not bind to Anxa1

## RQWLLFI (control peptide) [RQ7, reference compound]
Anxa1-His6 protein [3]
  inhibition of fucosylated carbohydrate (LeA) binding to Anxa1: not by RQ7

## CC[C@H](C)[C@H](N)C(=O)N[C@@H](Cc1ccccc1)C(=O)N[C@@H](CC(C)C)C(=O)N[C@@H](CC(C)C)C(=O)N[C@@H](Cc1c[nH]c2ccccc12)C(=O)N[C@@H](CCC(N)=O)C(=O)N[C@@H](CCCNC(=N)N)C(=O)N[C@@H](CCCCN)C(=O)N[C@@H](CCCCN)C(=O)N[C@@H](CCCCN)C(=O)N[C@@H](CS)C(=O)O [IF7K3C] (H-IFLLWQRKKKC-OH; N-terminus and C-terminus assumed)
Anxa1-His protein
  Kd: 11 ± 6 µM

## RQ7C(RR)-SN38 (RQWLLFICRR; also: SN-38 conjugate, site not given here)
[4]
  blood cell counts: None of the parameters showed significant differences to the control
  blood chemistry: None of the parameters showed significant differences to the control
  body weights: None of the parameters showed significant differences to the control

## IF7-A488 (IFLLWQRC)
[1]; [10]
  time until fluorescence signals appeared in the tumor: within one minute
  time until tumor fluorescence reached a plateau: 9 min
[1]
  vascular staining in tumor tissue sections: vascular staining by IF7-A488; also recorded: detected on endothelial cells of tumor vasculature
[1]; IgG 15 minutes prior
  tumor targeting after prior injection of irrelevant rabbit IgG: did not inhibit IF7-A488 tumor targeting
[1]; antibody 15 minutes prior
  tumor fluorescence signals after prior injection of anti-Anxa1 antibody: significantly reduced
[1]; or until the experiment was terminated
  time tumor fluorescence remained high: 40 min
Anxa1-His6 protein [2]
  binding to recombinant Anxa1-His6 protein in plate assay: binds to recombinant Anxa1-His6 protein
[5]; control mice without tumors
  fluorescence remaining in circulation, mice without tumors: remained in circulation after an initial surge
[5]; subcutaneous B16 tumors
  fluorescence remaining in circulation, B16-tumor-bearing mice: complete disappearance from the circulation

## CO[C@H]1/C=C\C=C(/C)C(=O)NC2=CC(=O)C(NCCCNC(=O)CCCN3C(=O)C=CC3=O)=C(C[C@@H](C)C[C@H](OC)[C@H](O)[C@@H](C)/C=C(\C)[C@@H]1OC(N)=O)C2=O [GA, 17-GMB-APA-GA, reference compound]
[6]
  apoptosis of perivascular tumor cells (TUNEL): rarely show apoptosis
[7]
  apoptosis of perivascular tumor cells (TUNEL, histochemistry): rarely show apoptosis
[8]
  apoptosis of perivascular tumor cells (TUNEL): rarely show apoptosis
[9]
  apoptosis of perivascular tumor cells (TUNEL): rarely show apoptosis
